Assays:
Type in all cases: cell-based
[1] = molecular target: T1, von Hippel-Lindau disease tumor suppressor/GTPase KRas (Homo sapiens, UniProt P01116+P40337, G12D); experiment: PROTAC activity at VHL/N-terminal HiBit-tagged KRAS G12D mutant (unknown origin) in human GP5d cells assessed as induction of KRAS G12D protein degradation incubated for 18 hrs by Nano-Gio HiBiT assay
[2] = system: von Hippel-Lindau disease tumor suppressor/GTPase KRas (Homo sapiens), P01116+P40337 [G12D]; experiment: PROTAC activity at VHL/HiBit-tagged KRAS G12D mutant (unknown origin) in human GP5d cells assessed as induction of KRAS G12D protein degradation incubated for 18 hrs by Nano-Gio HiBiT assay relative control
Sequence of von Hippel-Lindau disease tumor suppressor/GTPase KRas (Homo sapiens), P01116+P40337 [G12D] (P01116 whole entry G12D): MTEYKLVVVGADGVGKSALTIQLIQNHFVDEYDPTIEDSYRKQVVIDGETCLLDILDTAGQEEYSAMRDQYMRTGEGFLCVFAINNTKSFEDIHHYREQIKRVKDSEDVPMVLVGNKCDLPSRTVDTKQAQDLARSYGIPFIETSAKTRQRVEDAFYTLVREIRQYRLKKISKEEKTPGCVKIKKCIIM
Sequence of von Hippel-Lindau disease tumor suppressor/GTPase KRas (Homo sapiens), P01116+P40337 [G12D] (P40337 whole entry partner): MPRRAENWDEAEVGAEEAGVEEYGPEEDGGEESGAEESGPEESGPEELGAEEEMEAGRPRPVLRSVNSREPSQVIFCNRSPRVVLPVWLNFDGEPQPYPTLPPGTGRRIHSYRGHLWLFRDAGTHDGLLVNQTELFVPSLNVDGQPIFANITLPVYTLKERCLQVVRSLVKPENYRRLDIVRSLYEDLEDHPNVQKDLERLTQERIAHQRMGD

[3] = molecular target: T1, von Hippel-Lindau disease tumor suppressor/GTPase KRas; experiment: PROTAC activity at E3 ubiquitin ligase/N-terminal HiBit-tagged KRAS G12D mutant (unknown origin) in human GP5d cells assessed as induction of KRAS G12D protein degradation incubated for 18 hrs by Nano-Gio HiBiT assay
[4] = system: von Hippel-Lindau disease tumor suppressor/GTPase KRas (Homo sapiens), P01116+P40337 [G12D]; experiment: PROTAC activity at E3 ubiquitin ligase/N-terminal HiBit-tagged KRAS G12D mutant (unknown origin) in human GP5d cells assessed as induction of KRAS G12D protein degradation incubated for 18 hrs by Nano-Gio HiBiT assay relative to control

T1 sequence (P01116 whole entry G12D, stated change not applied): as the sequence (P01116 whole entry G12D) above
T1 sequence (P40337 whole entry, stated change not applied): as the sequence (P40337 whole entry partner) above

| SMILES | DC50 [1] [nM] | Emax [2] [%] | DC50 [3] [nM] | Emax [4] [%] |
| --- | --- | --- | --- | --- |
| Cc1ncsc1-c1ccc(CNC(=O)[C@@H]2C[C@@H](O)CN2C(=O)C(c2cc(OCCCCN3CCCN(c4nccc(-c5noc([C@@]6(C)CCCc7sc(N)c(C#N)c76)n5)n4)[C@@H](C)C3)no2)C(C)C)cc1F (some centres undefined) | 6.5 | 92 | – | – |
| Cc1ncsc1-c1ccc(CNC(=O)[C@@H]2C[C@@H](O)CN2C(=O)C(c2cc(OCCCN3CCCN(c4nccc(-c5noc([C@@]6(C)CCCc7sc(N)c(C#N)c76)n5)n4)[C@@H](C)C3)no2)C(C)C)cc1 (some centres undefined) | 6.4 | 94 | – | – |
| Cc1ncsc1-c1ccc(CNC(=O)[C@@H]2C[C@@H](O)CN2C(=O)C(c2cc(OCCCCN3CCCN(c4nccc(-c5cc([C@@]6(C)CCCc7sc(N)c(C#N)c76)on5)n4)[C@@H](C)C3)no2)C(C)C)cc1 (some centres undefined) | 4.3 | 94 | – | – |
| CC(C)C(C(=O)N1C[C@H](O)C[C@H]1C(=O)NCc1ccc(-n2cncn2)cc1)c1cc(OCCCCN2CCCN(c3nccc(-c4noc([C@@]5(C)CCCc6sc(N)c(C#N)c65)n4)n3)[C@@H](C)C2)no1 (single isomer, unassigned) | – | – | 3.3 | 93 |
| Cc1ncsc1-c1ccc(CNC(=O)[C@@H]2C[C@@H](O)CN2C(=O)C(c2cc(OCCCCN3CCCN(c4nccc(-c5noc([C@@]6(C)CCCc7sc(N)c(C#N)c76)n5)n4)[C@@H](C)C3)no2)C(C)C)cc1 (some centres undefined) | 2.7 | 91 | – | – |
| Cc1ncsc1-c1ccc([C@H](CO)NC(=O)[C@@H]2C[C@@H](O)CN2C(=O)[C@H](C(C)C)n2cc(OCCCC(C)N3CCCN(c4nccc(-c5noc([C@@]6(C)CCCc7sc(N)c(C#N)c76)n5)n4)[C@@H](C)C3)nn2)cc1 (single isomer, unassigned) | 1.4 | 94 | – | – |
| Cc1ncsc1-c1ccc([C@H](C)NC(=O)[C@@H]2C[C@@H](O)CN2C(=O)C(C(C)C)n2cc(OCCCCN3CCCN(c4nccc(-c5noc([C@@]6(C)CCCc7sc(N)c(C#N)c76)n5)n4)[C@@H](C)C3)nn2)cc1 (single isomer, unassigned) | 1.5 | 93 | – | – |
| CC(C)C(C(=O)N1C[C@H](O)C[C@H]1C(=O)NCc1ccc(-n2ccnc2)cc1)c1cc(OCCCCN2CCCN(c3nccc(-c4noc([C@@]5(C)CCCc6sc(N)c(C#N)c65)n4)n3)[C@@H](C)C2)no1 (single isomer, unassigned) | – | – | 6.7 | 93 |
| CC(C)C(C(=O)N1C[C@H](O)C[C@H]1C(=O)NCc1ccc(C#N)cc1)c1cc(OCCCCN2CCCN(c3nccc(-c4noc([C@@]5(C)CCCc6sc(N)c(C#N)c65)n4)n3)[C@@H](C)C2)no1 (single isomer, unassigned) | – | – | 3.9 | 91 |
| Cc1ncsc1-c1ccc(CNC(=O)[C@@H]2C[C@@H](O)CN2C(=O)C(c2cc(OCCCCN3CCCN(c4nccc(-c5cc([C@@]6(C)CCCc7sc(N)c(C#N)c76)no5)n4)[C@@H](C)C3)no2)C(C)C)cc1 (single isomer, unassigned) | 8.9 | 92 | – | – |
| Cc1ncsc1-c1ccc([C@H](NC(=O)[C@@H]2C[C@@H](O)CN2C(=O)[C@H](C(C)C)n2cc(OCCCCN3CCCN(c4nccc(-c5noc([C@@]6(C)CCCc7sc(N)c(C#N)c76)n5)n4)[C@@H](C)C3)nn2)[C@H](C)O)cc1 (single isomer, unassigned) | 1.6 | 94 | – | – |
| Cc1ncsc1-c1ccc([C@@H](NC(=O)[C@H]2C[C@H](O)CN2C(=O)[C@@H](C(C)C)n2cc(OCCCN3CCCN(c4nccc(-c5noc([C@@]6(C)CCCc7sc(N)c(C#N)c76)n5)n4)[C@@H](C)C3)nn2)[C@@H](O)C(C)C)cc1 | 1.2 | 93 | – | – |

Reference: ChEMBL document CHEMBL5370676, “KRAS-Degrading Compounds: A Novel Approach to Treat Cancer by Targeting Both Wild-Type and Mutated KRAS Forms” (ACS Med Chem Lett, 2023)
